A short description of data set [1]: Plasma concentration of COL-3 in humans. It is filed as in vivo. As to conditions: dose of about 10 to about 20 mg/day. How it is done: A preferred COL is 6-demethyl-6-deoxy-4-de(dimethylamino)tetracycline (COL-3). COL-3 is administered in doses of up to about 200 mg/day, preferably about 150 mg/day, more preferably about 100 mg/day, or in amounts that result in plasma concentrations of up to about 50 μg/ml, about 40 μg/ml or about 30 μg/ml. For example, a dose of about 10 to about 20 mg/day of COL-3 produces plasma concentrations in humans of about 1.0 μg/ml.

Data set [2] deals with minor aphthous ulceration. The data set is described as follows: Clinical study of SDD versus placebo for relief of symptoms of aphthous ulceration. As to conditions: for number of ulcers / pain associated with ulcers: 20 mg twice a day, vis-à-vis placebo group. It is filed as in vivo, human. How it is done:
The objective of this study was to evaluate the clinical effects of a 20 mg dose of doxycycline administered twice daily (i.e., a sub-antibacterial dose of doxycycline, “SDD”) vis-à-vis a placebo administered twice daily for the relief of symptoms of aphthous ulceration.
The study was a single center, placebo-controlled, double-bind, parallel group study. The study participants were fifty patients of an oral medicine clinic. The participants were screened to identify any known predisposing factors prior to the study.
The participants were administered SDD or placebo for three months. The participants were permitted to use any additional ulcer management therapies as needed. The participants kept daily diaries to record pain caused by ulcers using the Visual Analogue Scale (VAS), and to record the number of new ulcers each day. The VAS quantified pain over a continuum represented by a horizontal line 100 mm in length.
At the baseline, the oral soft tissues and ulcer count were evaluated in each of the participants. The ulcer history of each participant was taken. At the third month, oral soft tissues and ulcer count were reevaluated.
Of the 50 participants, 25 were administered SDD; and 25 were administered placebo. Of the 50 participants, 32 were females, 18 were males; and 49 were Caucasian, and one was Asian. Thirty-three participants completed the study. Of these participants, 16 were in the SDD group and 17 were in the placebo group.

A further data set concerns aphthous ulcers. As to conditions: continuous systemic treatment, antimicrobial amounts; cited from earlier work.

In the case of `NC(=O)C1=C(O)C[C@@H]2C[C@@H]3Cc4cccc(O)c4C(=O)C3=C(O)[C@]2(O)C1=O` [COL-3, 6-demethyl-6-deoxy-4-de(dimethylamino)tetracycline], the “plasma concentrations in humans” value in data set [1] is listed as “about 1.0 μg/ml”.

doxycycline hyclate [SDD]: the “treatment of RAS” value in data set [2] (20 mg doxycycline twice daily for three months) is “effectively treated RAS”. Further, in data set [2] (20 mg doxycycline twice daily for three months, placebo group 1.24, P >0.05), the “Mean number of ulcers present at month 3” value is 0.69. Also, in data set [2] (20 mg doxycycline twice daily for three months, placebo group 13.4, P >0.05), the “Mean number of days using additional treatments” value is 11.5. The “Mean total number of new ulcers in 3 months” value in data set [2] (20 mg doxycycline twice daily for three months, placebo group 35, P >0.05(0.07)) was found to be 17. Also, in data set [2], the number of ulcers entry is recorded as “fewer ulcers” and the “pain associated with ulcers” value is on record as “less pain”. Moreover, in data set [2] (listed as doxycycline hyclate), the number of ulcers entry is “significant reduction” and the “pain associated with ulcers” value is reported as “significant reduction”. Moreover, in data set [2] (pain by Visual Analogue Scale, daily diaries over three months, placebo group 1435, P >0.05), the “Mean cumulative VAS (mm)” value amounted to 901 mm.

Regarding `CN(C)[C@@H]1C(O)=C(C(N)=O)C(=O)[C@@]2(O)C(O)=C3C(=O)c4c(O)cccc4[C@@](C)(O)[C@H]3C[C@@H]12` [tetracycline, Tetracycline], the “remission phases of aphthous ulcers” value in the data set on aphthous ulcers is recorded as “long remission phases”.

The values above are taken from patent US20060252731A1, “Methods of treating recurrent aphthous stomatitis” (priority 2005, published 2006).
